Test results published in patent US20150225739A1 (priority 2014, published 2015).
Where two headings read alike, the source gives them in different places.

Columns and labels:
icp35 IRES [1] = assay: IRES activity under tunicamycin-induced ER stress, dual luciferase assay in Sf9 cells; type: cell-based, White spot syndrome virus; settings: tunicamycin 2.5 μg/ml added 24 h post-transfection, 15 h of treatment
Protocol: After 15 h of treatment, cells were harvested. One replicate of the harvested cells was subjected to a dual luciferase assay as described above. The other replicate was subjected to Western blotting to monitor the level of the phosphorylated proteins. For this assay, 2× sample buffer was added to the cells and the mixture was boiled for 10 minutes. An aliquot (15 μl) was separated on 15% SDS-PAGE and transferred onto the PVDF membrane as described above. The blots were then blocked with 5% BSA in TBST (0.01% of Tween 20 in TBS buffer) for 1 h at RT, and probed with the commercial primary antibodies Phospho-eIF2α (Ser51) (Cell Signaling) or EIF2S1 (Abeam). The antibodies were diluted 1:1,000 in 2.5% non-fat milk in TBST and applied for 16 h at 4° C. This step was followed by washing three times for 10 min at RT with TBST. The blots were then probed with anti-Rabbit or anti-Mouse IgG secondary antibody (Santa Cruz Biotechnology) diluted 1:10,000 in 2.5% BSA in TBST for 1 hr at RT, and washed three times for 10 min at RT with TBST. Western Lightning® Plus-ECL reagents were used for visualization as described above.

WSSV = assay: In vivo quinacrine assay and WSSV challenge experiment in shrimp; parameters: species or system Litopenaeus vannamei
Protocol: (§1) For the WSSV challenge experiment, groups of shrimp (14 shrimp per group) were injected either with WSSV (50 μl of 100× dilution of the virus stock) or with PBS as a negative control. These first injections were then immediately followed by a second injection of 50 μl of either QC (5 μg/g) or PBS. Pleopods were excised from 3 randomly selected shrimp from each group at 0, 1, 2, 6 and 9 days post-injection (dpi) and tested for WSSV infection as described below. A second replicate of this entire experiment was performed at the same time. No pleopods were collected from the shrimp in this second replicate. Instead, mortality was observed and recorded every 12 h.
A commercial WSSV diagnostic kit (IQ2000 WSSV Detection and Prevention System, GeneReach Biotechnology Corp.) was used to determine WSSV infection levels. Briefly, genomic DNA extracted from the shrimp pleopod samples was isolated using the DTAB/CTAB extraction procedure according to the manufacturer's instructions. Next, competitive nested PCR analysis was performed using the extracted DNA samples. The PCR products were analyzed by electrophoresis with a 2% agarose gel. WSSV infection levels were determined according to the pattern of bands indicated in the kit's instructions.

icp35 IRES [2] = settings: Sf9 cells, 48 h, relative to untreated
poliovirus IRES = settings: dose-dependent; cited from earlier work
[3] = tested on: Encephalomyocarditis Virus (EMCV) IRES; settings: dose-dependent; cited from earlier work
[4] = In vivo quinacrine dosage determination in shrimp (mortality); parameters: species or system Litopenaeus vannamei; settings: injected 0.5, 2.5 or 5 μg/g body weight, 20 shrimp per group, 2 weeks
Protocol: To determine the optimal QC dosage for the challenge experiment, four groups of shrimp (20 shrimp per group) were injected with different doses ([…], 2.5 μg/g, or 5 μg/g body weight) of QC (10 mg/mL stock solution in PBS) or with PBS (negative control). The mortality of each group was observed and recorded every 12 h.
as §1

cellular p53 IRES = settings: cited from earlier work
[5] = tested on: hepatitis C virus (HCV) IRES; settings: dose-dependent; cited from earlier work

Row | Molecule | cap-dependent translation (RL activity) (icp35 IRES [1]) | icp35 IRES-dependent translation (FL activity) (icp35 IRES [1]) | mortality rate after WSSV challenge (WSSV; QC 5 μg/g injected immediately after WSSV inoculum, vs WSSV+PBS) | shrimp still alive (WSSV; WSSV+QC group, QC 5 μg/g, 9 dpi) | WSSV infection level in surviving shrimp (IQ2000 nested competitive PCR) (WSSV; WSSV+QC sample collection group, 1, 2, 6 and 9 dpi) | FL value (IRES-mediated firefly luciferase activity) (icp35 IRES [2]; QC 25 μM) | FL/RL ratio (icp35 IRES [2]; QC 25 μM) | FL value (IRES-mediated firefly luciferase activity) (icp35 IRES [2]; QC 30 μM) | FL/RL ratio (icp35 IRES [2]; QC 30 μM) | RL value (cap-dependent Renilla luciferase activity) (icp35 IRES [2]; […], QC 25 μM or 30 μM) | IRES activity (poliovirus IRES) | IRES activity [3] | survival of unchallenged shrimp [4] | sensitivity of IRES to QC (cellular p53 IRES) | IRES activity [5]
1 | tunicamycin | inhibited | inhibited | – | – | – | – | – | – | – | – | – | – | – | – | –
2 | CCN(CC)CCCC(C)Nc1c2ccc(Cl)cc2nc2ccc(OC)cc12 (stereo not drawn) [QC, quinacrine dihydrochioride] | – | – | significantly reduced | over 70% | tested negative or had only a light infection | significantly reduced | significantly reduced | significantly reduced | significantly reduced | no significant effect | inhibited | inhibited | All but one of the shrimp (in the 0.5 μg/g group) survived | not sensitive | inhibited
